What was measured:
[1] = target: GSK 3α enzyme isoform (Homo sapiens (Human), UniProt P49840); assay: GSK 3α enzyme inhibition (FRET, Z-LYTE); assay type: biochemical; details: read-out: IC50 Values for Enzyme Inhibition GSK3α
Procedure: The enzyme inhibitory activities of compounds disclosed herein were determined by FRET using synthetic peptides labelled with both donor and acceptor fluorophores (Z-LYTE, Invitrogen Ltd., Paisley, UK).
The inhibitory activities of test compounds against the GSK 3α enzyme isoform (Invitrogen), were evaluated by determining the level of activation/phosphorylation of the target peptide.
The GSK3-α protein (500 ng/mL, 2.5 μL) was mixed with the test compound (2.5 μL at either 4 μg/mL, 0.4 μg/mL, 0.04 μg/mL, or 0.004 μg/mL) for 2 hr at RT. The FRET peptide (8 μM, 2.5 μL), which is a phosphorylation target for GSK3α, and ATP (40 μM, 2.5 μL) were then added to the enzyme/compound mixture and the resulting mixture incubated for 1 hr. Development reagent (protease, 5 μL) was added for 1 hr prior to detection in a fluorescence microplate reader (Varioskan® Flash, ThermoFisher Scientific).
In all cases, the site-specific protease cleaves non-phosphorylated peptide only and eliminates the FRET signal. Phosphorylation levels of each reaction were calculated using the ratio of coumarin emission (donor) over fluorescein emission (acceptor), for which low ratios indicate high phosphorylation and high ratios indicate low phosphorylation levels.

[2] = target: p38MAPKγ (MAPK12) (Homo sapiens (Human), UniProt P53778); assay: p38 MAPKγ enzyme inhibition (FRET, Z-LYTE); assay type: biochemical
Sequence of p38MAPKγ (MAPK12) (P53778 whole entry): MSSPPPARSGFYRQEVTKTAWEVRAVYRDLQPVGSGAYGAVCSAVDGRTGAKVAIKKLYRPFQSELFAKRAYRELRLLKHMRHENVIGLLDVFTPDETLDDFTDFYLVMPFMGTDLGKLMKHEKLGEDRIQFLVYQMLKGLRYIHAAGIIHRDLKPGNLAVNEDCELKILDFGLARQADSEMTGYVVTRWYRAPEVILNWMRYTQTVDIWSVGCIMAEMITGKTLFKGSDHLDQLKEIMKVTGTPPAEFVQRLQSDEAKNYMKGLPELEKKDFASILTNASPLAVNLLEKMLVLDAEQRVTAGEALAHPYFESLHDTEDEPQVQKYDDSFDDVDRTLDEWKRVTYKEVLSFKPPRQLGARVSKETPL
Procedure: The enzyme inhibitory activities of compounds disclosed herein were determined by FRET using synthetic peptides labelled with both donor and acceptor fluorophores (Z-LYTE, Invitrogen Ltd., Paisley, UK). […] Development reagent (protease, 5 μL) was added for 1 hr prior to detection in a fluorescence microplate reader (Varioskan® Flash, Thermo Scientific). In all cases, the site-specific protease cleaves non-phosphorylated peptide only and eliminates the FRET signal. Phosphorylation levels of each reaction were calculated using the ratio of coumarin emission (donor) over fluorescein emission (acceptor), for which low ratios indicate high phosphorylation and high ratios indicate low phosphorylation levels.

[3] = system: ICAM-1 expression in BEAS2B cells; assay: Poly I:C-induced ICAM-1 expression in BEAS2B cells; assay type: cell-based, human; details: Homo sapiens, BEAS-2B, read-out: PolyIC/ICAM1 IC50 (BEAS2B)
Procedure: Poly I:C was used in these studies as a simple, RNA virus mimic. Poly I:C-Oligofectamine mixture (1 μg/mL Poly I:C, ±2% Oligofectamine, 25 μL; Invivogen Ltd., San Diego, Calif., and Invitrogen, Carlsbad, Calif., respectively) was transfected into BEAS2B cells (human bronchial epithelial cells, ATCC). Cells were pre-incubated with final concentrations of test compounds for 2 hr and the level of ICAM-1 expression on the cell surface was determined by cell-based ELISA. At a time point 18 hr after poly I:C transfection, cells were fixed with 4% formaldehyde in PBS (100 μL) and then endogenous peroxidase was quenched by the addition of washing buffer (100 μL, 0.05% Tween in PBS: PBS-Tween) containing 0.1% sodium azide and 1% hydrogen peroxide. Cells were washed with wash-buffer (3×200 μL). and after blocking the wells with 5% milk in PBS-Tween (100 μL) for 1 hr, the cells were incubated with anti-human ICAM-1 antibody (50 μL; Cell Signaling Technology, Danvers, Mass.) in 1% BSA PBS overnight at 4° C.
The cells were washed with PBS-Tween (3×200 μL) and incubated with the secondary antibody (100 μL; HRP-conjugated anti-rabbit IgG, Dako Ltd., Glostrup, Denmark). The cells were then incubated with of substrate (50 μL) for 2-20 min, followed by the addition of stop solution (50 μL, 1N H2SO4). The ICAM-1 signal was detected by reading […] the absorbance at 450 nm against a reference wavelength of 655 nm using a spectrophotometer. The cells were then washed with PBS-Tween (3×200 μL) and total cell numbers in each well were determined by reading absorbance at 595 nm after Crystal Violet staining (50 μL of a 2% solution in PBS) and elution by 1% SDS solution (100 μL) in distilled water. The measured OD 450-655 readings were corrected for cell number by dividing with the OD595 reading in each well. The inhibition of ICAM-1 expression was calculated at each concentration of test compound by comparison with vehicle control.

[4] = target: p38 MAPKα isoform (MAPK14) (Homo sapiens (Human), UniProt Q16539); assay: p38 MAPKα enzyme inhibition (FRET, Z-LYTE); assay type: biochemical
Sequence of p38 MAPKα isoform (MAPK14) (Q16539 whole entry, canonical isoform): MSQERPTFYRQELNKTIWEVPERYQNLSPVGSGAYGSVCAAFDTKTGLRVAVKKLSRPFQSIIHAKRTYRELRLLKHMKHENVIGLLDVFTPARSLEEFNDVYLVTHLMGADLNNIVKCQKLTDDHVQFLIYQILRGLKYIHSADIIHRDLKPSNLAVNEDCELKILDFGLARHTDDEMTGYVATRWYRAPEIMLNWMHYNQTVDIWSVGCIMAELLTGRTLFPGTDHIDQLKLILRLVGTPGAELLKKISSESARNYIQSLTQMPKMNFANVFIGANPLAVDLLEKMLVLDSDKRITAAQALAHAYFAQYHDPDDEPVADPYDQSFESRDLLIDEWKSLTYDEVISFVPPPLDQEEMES
Procedure: The enzyme inhibitory activities of compounds disclosed herein were determined by FRET using synthetic peptides labelled with both donor and acceptor fluorophores (Z-LYTE, Invitrogen Ltd., Paisley, UK). The inhibitory activities of test compounds against the p38 MAPKα isoform (MAPK14: Invitrogen), were evaluated indirectly by determining the level of activation/phosphorylation of the down-stream molecule, MAPKAP-K2. […] The mixture was incubated for 1 hr at RT. Development reagent (protease, 5 μL) was added for 1 hr prior to detection in a fluorescence microplate reader (Varioskan® Flash, ThermoFisher Scientific). In all cases, the site-specific protease cleaves non-phosphorylated peptide only and eliminates the FRET signal. Phosphorylation levels of each reaction were calculated using the ratio of coumarin emission (donor) over fluorescein emission (acceptor), for which low ratios indicate high phosphorylation and high ratios indicate low phosphorylation levels.

[5] = system: d-U937 cells; assay: Cell viability: MTT assay; assay type: cell-based, human; details: 1 μg/mL
Procedure: Differentiated U937 cells were pre-incubated with each test compound (final concentration 1 μg/mL or 10 μg/mL in 200 μL media indicated below) under two protocols: the first for 4 hr in 5% FCS RPMI1640 media and the second in 10% FCS RPMI1640 media for 24 h. The supernatant was replaced with new media (200 μL) and MTT stock solution (10 μL, 5 mg/mL) was added to each well. After incubation for 1 hr the media were removed, DMSO (200 μL) was added to each well and the plates were shaken lightly for 1 hr prior to reading the absorbance at 550 nm. The percentage loss of cell viability was calculated for each well relative to vehicle (0.5% DMSO) treatment. Consequently an apparent increase in cell viability for drug treatment relative to vehicle is tabulated as a negative percentage.

Sequence of GSK 3α enzyme isoform (P49840 whole entry, canonical isoform): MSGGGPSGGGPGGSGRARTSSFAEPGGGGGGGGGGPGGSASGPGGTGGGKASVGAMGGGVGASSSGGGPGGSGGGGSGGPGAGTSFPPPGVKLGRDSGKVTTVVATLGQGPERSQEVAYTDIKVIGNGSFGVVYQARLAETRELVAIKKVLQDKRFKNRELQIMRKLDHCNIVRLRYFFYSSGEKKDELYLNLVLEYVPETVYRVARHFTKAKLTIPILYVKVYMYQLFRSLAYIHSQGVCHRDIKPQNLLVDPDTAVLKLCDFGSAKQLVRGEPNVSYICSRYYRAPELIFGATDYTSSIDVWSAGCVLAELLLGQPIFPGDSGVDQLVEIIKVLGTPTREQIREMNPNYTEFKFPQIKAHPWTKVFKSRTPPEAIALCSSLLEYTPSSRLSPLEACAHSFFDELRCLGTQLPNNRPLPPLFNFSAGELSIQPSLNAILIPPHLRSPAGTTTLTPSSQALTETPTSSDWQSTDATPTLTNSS

Row | SMILES | IC50 [1] | IC50 [2] | IC50 [3] | IC50 [4] | MTT Assay Cell viability at time point in d-U937 Cells ([5]; 4 h) | MTT Assay Cell viability at time point in d-U937 Cells ([5]; 24 h)
1 | COc1ccc(Nc2nccc(Oc3ccc(NC(=O)Nc4cc(C(C)(C)C)nn4-c4ccc(C)cc4)c4ccccc34)n2)cc1 [Example 17, 1-(3-(tert-butyl)-1-(p-tolyl)-1H-pyrazol-5-yl)-3-(4-((2-((4-methoxyphenyl)amino)pyrimidin-4-yl)oxy)naphthalen-1-yl)urea] | > 16.3 µM | > 16.3 µM | 0.0067 µM | 0.083 µM | −ve (−ve and +ve indicate the value is below and above respectively, the no significant effect threshold defined as 30% inhibition at 1 μg/mL at the time point indicated) | −ve (−ve and +ve indicate the value is below and above respectively, the no significant effect threshold defined as 30% inhibition at 1 μg/mL at the time point indicated)
2 | Cc1ccc(-n2nc(C(C)(C)C)cc2NC(=O)Nc2ccc(Oc3ccnc(Nc4ccccc4C(C)C)n3)c3ccccc23)cc1 [Example 20, 1-(3-(tert-butyl)-1-(p-tolyl)-1H-pyrazol-5-yl)-3-(4-((2-((2-isopropylphenyl)amino)pyrimidin-4-yl)oxy)naphthalen-1-yl)urea] | > 16 µM | > 16 µM | 0.016 µM | 0.009 µM | −ve (−ve and +ve indicate the value is below and above respectively, the no significant effect threshold defined as 30% inhibition at 1 μg/mL at the time point indicated) | −ve (−ve and +ve indicate the value is below and above respectively, the no significant effect threshold defined as 30% inhibition at 1 μg/mL at the time point indicated)
3 | Cc1ccc(-n2nc(C(C)(C)C)cc2NC(=O)Nc2ccc(Oc3ccnc(Nc4ccccc4C)n3)c3ccccc23)cc1 [Example 21, 1-(3-(tert-butyl)-1-(p-tolyl)-1H-pyrazol-5-yl)-3-(4-((2-(o-tolylamino)pyrimidin-4-yl)oxy)naphthalen-1-yl)urea] | > 1.67 µM | > 1.67 µM | 0.036 µM | 0.033 µM | −ve (−ve and +ve indicate the value is below and above respectively, the no significant effect threshold defined as 30% inhibition at 1 μg/mL at the time point indicated) | −ve (−ve and +ve indicate the value is below and above respectively, the no significant effect threshold defined as 30% inhibition at 1 μg/mL at the time point indicated)
4 | Cc1ccc(-n2nc(C(C)(C)C)cc2NC(=O)Nc2ccc(Oc3ccnc(Nc4ccc(F)cc4)n3)c3ccccc23)cc1 [Example 23, 1-(3-(tert-butyl)-1-(p-tolyl)-1H-pyrazol-5-yl)-3-(4-((2-((4-fluorophenyl)amino)pyrimidin-4-yl)oxy)naphthalen-1-yl)urea] | > 1.66 µM | > 1.66 µM | 0.0042 µM | 0.212 µM | −ve (−ve and +ve indicate the value is below and above respectively, the no significant effect threshold defined as 30% inhibition at 1 μg/mL at the time point indicated) | −ve (−ve and +ve indicate the value is below and above respectively, the no significant effect threshold defined as 30% inhibition at 1 μg/mL at the time point indicated)
5 | COc1ccc(Nc2nccc(Oc3ccc(NC(=O)Nc4cc(C(C)(C)C)nn4-c4ccc(C)cc4)c4ccccc34)n2)cc1Cl [Example 28, 1-(3-(tert-butyl)-1-(p-tolyl)-1H-pyrazol-5-yl)-3-(4-((2-((3-chloro-4-methoxyphenyl)amino)pyrimidin-4-yl)oxy)naphthalen-1-yl)urea] | > 1.54 µM | > 1.54 µM | 0.003 µM | 1.42 µM | −ve (−ve and +ve indicate the value is below and above respectively, the no significant effect threshold defined as 30% inhibition at 1 μg/mL at the time point indicated) | −ve (−ve and +ve indicate the value is below and above respectively, the no significant effect threshold defined as 30% inhibition at 1 μg/mL at the time point indicated)
6 | Cc1ccc(-n2nc(C(C)(C)C)cc2NC(=O)Nc2ccc(Oc3ccnc(Nc4ccc(O)cc4F)n3)c3ccccc23)cc1 [Example 30, 1-(3-(tert-butyl)-1-(p-tolyl)-1H-pyrazol-5-yl)-3-(4-((2-((2-fluoro-4-hydroxyphenyl)amino)pyrimidin-4-yl)oxy)naphthalen-1-yl)urea] | > 1.62 µM | > 1.62 µM | 0.011 µM | 0.068 µM | −ve (−ve and +ve indicate the value is below and above respectively, the no significant effect threshold defined as 30% inhibition at 1 μg/mL at the time point indicated) | −ve (−ve and +ve indicate the value is below and above respectively, the no significant effect threshold defined as 30% inhibition at 1 μg/mL at the time point indicated)
7 | Cc1ccc(-n2nc(C(C)(C)C)cc2NC(=O)Nc2ccc(Oc3ccnc(Nc4ccc(O)cc4Cl)n3)c3ccccc23)cc1 [Example 31, 1-(3-(tert-butyl)-1-(p-tolyl)-1H-pyrazol-5-yl)-3-(4-((2-((2-chloro-4-hydroxyphenyl)amino)pyrimidin-4-yl)oxy)naphthalen-1-yl)urea] | > 1.58 µM | > 1.58 µM | 0.08 µM | 0.118 µM | −ve (−ve and +ve indicate the value is below and above respectively, the no significant effect threshold defined as 30% inhibition at 1 μg/mL at the time point indicated) | −ve (−ve and +ve indicate the value is below and above respectively, the no significant effect threshold defined as 30% inhibition at 1 μg/mL at the time point indicated)
